Test results taken from the NIST ThermoML archive (doi:10.1016/j.jct.2012.11.011).
± gives the expanded uncertainty stated by the source.

Assay: xn = mol fraction of the nth substance listed
Details: Liquid, Vibrating tube method

CCOC(=O)OCC [diethyl carbonate] + CCCCCCCCCC
mass density [kg/m3]
Details	x1 = 0.0538	x1 = 0.1716	x1 = 0.2151	x1 = 0.3257	x1 = 0.5032	x1 = 0.5482	x1 = 0.7985	x1 = 0.8989	x1 = 0.9487
288.15 K, 100 kPa	740.8 ± 0.3	759.4 ± 0.3	766.3 ± 0.3	786.5 ± 0.3	821.3 ± 0.3	832.2 ± 0.3	903.2 ± 0.3	937.5 ± 0.3	956.9 ± 0.3
288.15 K, 5000 kPa	744.5 ± 0.3	763.3 ± 0.3	770.2 ± 0.3	790.5 ± 0.3	826.7 ± 0.3	836.6 ± 0.3	907.4 ± 0.3	943.6 ± 0.3	963 ± 0.3
288.15 K, 10000 kPa	748 ± 0.4	766.8 ± 0.4	773.7 ± 0.4	794.3 ± 0.3	830.7 ± 0.3	840.6 ± 0.3	911.5 ± 0.3	947.7 ± 0.3	967.1 ± 0.3
288.15 K, 20000 kPa	754.6 ± 0.4	773.6 ± 0.4	780.5 ± 0.4	801.2 ± 0.4	837.8 ± 0.4	847.8 ± 0.3	919 ± 0.3	955.4 ± 0.3	974.8 ± 0.3
288.15 K, 30000 kPa	760.6 ± 0.5	780.9 ± 0.5	786.9 ± 0.5	807.5 ± 0.4	844.6 ± 0.4	854.5 ± 0.4	926 ± 0.3	962.6 ± 0.3	981.9 ± 0.3
288.15 K, 40000 kPa	766.4 ± 0.6	785.6 ± 0.6	792.8 ± 0.5	813.8 ± 0.5	850.9 ± 0.4	860.9 ± 0.4	932.8 ± 0.3	969.5 ± 0.3	988.9 ± 0.3
298.15 K, 100 kPa	733.1 ± 0.3	751.2 ± 0.3	758 ± 0.3	777.9 ± 0.3	813.5 ± 0.3	823.1 ± 0.3	892.8 ± 0.3	928.3 ± 0.3	947.6 ± 0.3
298.15 K, 5000 kPa	737.6 ± 0.3	755.8 ± 0.3	762.6 ± 0.3	782.6 ± 0.3	818.2 ± 0.3	827.8 ± 0.3	897.7 ± 0.3	933.5 ± 0.3	952.7 ± 0.3
298.15 K, 10000 kPa	740.7 ± 0.4	759.1 ± 0.4	766 ± 0.4	786.1 ± 0.3	821.9 ± 0.3	831.7 ± 0.3	901.5 ± 0.3	937.5 ± 0.3	956.6 ± 0.3
298.15 K, 20000 kPa	747.7 ± 0.4	766.2 ± 0.4	773.1 ± 0.4	793.5 ± 0.4	829.7 ± 0.4	839.4 ± 0.3	909.6 ± 0.3	945.7 ± 0.3	964.8 ± 0.3
298.15 K, 30000 kPa	753.9 ± 0.5	772.6 ± 0.5	779.8 ± 0.5	800.2 ± 0.5	836.7 ± 0.4	846.5 ± 0.4	917.1 ± 0.3	953.2 ± 0.3	972.2 ± 0.3
298.15 K, 40000 kPa	759.8 ± 0.6	778.7 ± 0.6	785.8 ± 0.6	806.5 ± 0.5	843.3 ± 0.4	853.1 ± 0.4	924.1 ± 0.3	960.2 ± 0.3	979.3 ± 0.3
308.15 K, 100 kPa	725.5 ± 0.3	743.2 ± 0.3	749.9 ± 0.3	769.4 ± 0.3	804.4 ± 0.3	813.9 ± 0.3	882.5 ± 0.3	917.7 ± 0.3	936.6 ± 0.3
308.15 K, 5000 kPa	729.6 ± 0.3	747.5 ± 0.3	754.3 ± 0.3	773.9 ± 0.3	809 ± 0.3	818.4 ± 0.3	887.3 ± 0.3	922.6 ± 0.3	941.5 ± 0.3
308.15 K, 10000 kPa	733.6 ± 0.4	751.6 ± 0.4	758.4 ± 0.4	778.1 ± 0.3	813.5 ± 0.3	823 ± 0.3	892 ± 0.3	927.1 ± 0.3	946.2 ± 0.3
308.15 K, 20000 kPa	740.7 ± 0.5	758.9 ± 0.4	765.9 ± 0.4	785.9 ± 0.4	821.4 ± 0.4	831 ± 0.4	900.5 ± 0.3	935.7 ± 0.3	954.6 ± 0.3
308.15 K, 30000 kPa	747.5 ± 0.5	765.8 ± 0.5	772.7 ± 0.5	792.9 ± 0.5	828.9 ± 0.4	838.4 ± 0.4	908.2 ± 0.3	943.8 ± 0.3	962.7 ± 0.3
308.15 K, 40000 kPa	753.6 ± 0.6	772.1 ± 0.6	779.1 ± 0.6	799.4 ± 0.5	835.8 ± 0.4	845.3 ± 0.4	915.6 ± 0.3	951.2 ± 0.3	970.2 ± 0.3

COC(=O)OC [dimethyl carbonate] + CCCCCCCC
mass density [kg/m3]
Details	x1 = 0.0535	x1 = 0.0978	x1 = 0.3935	x1 = 0.496	x1 = 0.5475	x1 = 0.5937	x1 = 0.7002	x1 = 0.8013	x1 = 0.8979	x1 = 0.9502
288.15 K, 100 kPa	716.4 ± 0.3	723.8 ± 0.3	791.6 ± 0.3	822.9 ± 0.3	840.9 ± 0.3	854.9 ± 0.3	899.6 ± 0.3	941.7 ± 0.3	1005 ± 0.3	1036.8 ± 0.4
288.15 K, 5000 kPa	719.8 ± 0.4	727.9 ± 0.3	796.9 ± 0.3	827.5 ± 0.3	844.6 ± 0.3	862 ± 0.3	904.6 ± 0.3	952.4 ± 0.3	1009 ± 0.3	1043.2 ± 0.4
288.15 K, 10000 kPa	723.6 ± 0.4	731.9 ± 0.4	801.1 ± 0.4	831.8 ± 0.4	849 ± 0.4	866.2 ± 0.4	908.9 ± 0.4	956.9 ± 0.4	1013.3 ± 0.4	1047.5 ± 0.4
288.15 K, 20000 kPa	730.9 ± 0.5	739.3 ± 0.5	808.8 ± 0.4	839.6 ± 0.4	857 ± 0.4	874.3 ± 0.4	917 ± 0.4	965 ± 0.4	1021.7 ± 0.4	1055.7 ± 0.4
288.15 K, 30000 kPa	737.5 ± 0.6	745.8 ± 0.5	816 ± 0.5	846.9 ± 0.4	864.3 ± 0.4	881.6 ± 0.4	924.4 ± 0.4	972.5 ± 0.4	1029.1 ± 0.4	1063.1 ± 0.4
288.15 K, 40000 kPa	743.7 ± 0.6	752 ± 0.6	822.8 ± 0.5	853.8 ± 0.5	871.2 ± 0.5	888.7 ± 0.4	931.6 ± 0.4	979.7 ± 0.4	1036.3 ± 0.4	1070.4 ± 0.4
298.15 K, 100 kPa	707.4 ± 0.3	715.3 ± 0.3	782.6 ± 0.3	812.6 ± 0.3	829.5 ± 0.3	846.5 ± 0.3	888.6 ± 0.3	936 ± 0.3	992.1 ± 0.3	1025.9 ± 0.4
298.15 K, 5000 kPa	712.2 ± 0.4	720.2 ± 0.4	787.8 ± 0.3	817.9 ± 0.3	834.9 ± 0.3	851.7 ± 0.3	893.9 ± 0.3	941.4 ± 0.3	997.3 ± 0.3	1031.1 ± 0.4
298.15 K, 10000 kPa	715.9 ± 0.4	724.1 ± 0.4	791.8 ± 0.4	822 ± 0.4	839 ± 0.4	856.1 ± 0.4	898.1 ± 0.4	945.6 ± 0.3	1001.5 ± 0.3	1035.3 ± 0.4
298.15 K, 20000 kPa	723.6 ± 0.5	731.7 ± 0.5	800.1 ± 0.4	830.4 ± 0.4	847.5 ± 0.4	864.6 ± 0.4	906.8 ± 0.4	954.2 ± 0.4	1010.1 ± 0.3	1043.7 ± 0.4
298.15 K, 30000 kPa	730.5 ± 0.6	738.7 ± 0.6	807.7 ± 0.5	838.1 ± 0.4	855.3 ± 0.4	872.4 ± 0.4	914.8 ± 0.4	962.1 ± 0.4	1018 ± 0.4	1051.7 ± 0.4
298.15 K, 40000 kPa	736.8 ± 0.7	745.1 ± 0.6	814.6 ± 0.5	845.1 ± 0.5	862.5 ± 0.5	879.6 ± 0.4	922 ± 0.4	969.7 ± 0.4	1025.6 ± 0.4	1059.1 ± 0.4
308.15 K, 100 kPa	699.2 ± 0.3	706.9 ± 0.3	772.9 ± 0.3	802.3 ± 0.3	819 ± 0.3	835.7 ± 0.3	877.3 ± 0.3	924.1 ± 0.3	979.6 ± 0.3	1013.1 ± 0.4
308.15 K, 5000 kPa	704 ± 0.4	711.8 ± 0.4	778.1 ± 0.3	807.6 ± 0.3	824.2 ± 0.3	841 ± 0.3	882.6 ± 0.3	929.2 ± 0.3	984.6 ± 0.3	1018.1 ± 0.4
308.15 K, 10000 kPa	708.3 ± 0.4	716.2 ± 0.4	782.8 ± 0.4	812.4 ± 0.4	829.1 ± 0.4	845.9 ± 0.4	887.5 ± 0.3	934.4 ± 0.3	989.6 ± 0.3	1023.1 ± 0.4
308.15 K, 20000 kPa	716.3 ± 0.5	724.3 ± 0.5	791.5 ± 0.4	821.3 ± 0.4	838.1 ± 0.4	854.9 ± 0.4	896.6 ± 0.4	943.4 ± 0.4	998.7 ± 0.3	1032.1 ± 0.4
308.15 K, 30000 kPa	723.7 ± 0.6	731.6 ± 0.6	799.6 ± 0.5	829.5 ± 0.5	846.4 ± 0.4	863.3 ± 0.4	905 ± 0.4	951.9 ± 0.4	1007.1 ± 0.3	1040.4 ± 0.4
308.15 K, 40000 kPa	730.4 ± 0.7	738.4 ± 0.7	806.9 ± 0.5	836.9 ± 0.5	853.9 ± 0.5	870.8 ± 0.5	912.8 ± 0.4	959.7 ± 0.4	1015 ± 0.4	1048.3 ± 0.4
